Converted amounts (≈) assume the structure as drawn. The source made the active and inactive calls. The rule behind the calls is not given here. Bridge positions count the residues as written; N and C are the ends. Peptide text beside a SMILES is read from it. I, II: the chains in the order shown. * marks the point of attachment. Lauroyl = CCCCCCCCCCCC(=O)*; Octanoyl = CCCCCCCC(=O)*; Butyryl = CCCC(=O)*
Experiments:
Pseudomonas aeruginosa [1] = experiment: Induction of cytoplasmic membrane depolarization in Pseudomonas aeruginosa DM23155 at 4 times MIC after 1 hr by fluorescence assay; assay type: functional, organism-based
[2] = Toxicity in New Zealand white rabbit erythrocytes assessed as hemolytic activity after 60 mins; assay type: cell-based, Oryctolagus cuniculus; details: erythrocyte, 1 h
Escherichia coli [3] = experiment: Antibacterial activity against Escherichia coli ATCC 25922 after 24 hrs by broth microdilution method; assay type: functional; details: ATCC 25922, 24 h
Pseudomonas aeruginosa [4] = experiment: Antibacterial activity against Pseudomonas aeruginosa DM23155 after 24 hrs by broth microdilution method; assay type: functional; details: DM23155, 24 h
Klebsiella pneumoniae [5] = experiment: Antibacterial activity against Klebsiella pneumoniae DM4299 after 24 hrs by broth microdilution method; assay type: functional; details: DM4299, 24 h
Pseudomonas aeruginosa [6] = experiment: Antibacterial activity against Pseudomonas aeruginosa DM23376 after 24 hrs by broth microdilution method; assay type: functional
Pseudomonas aeruginosa [7] = experiment: Antibacterial activity against Pseudomonas aeruginosa ATCC 9027 after 24 hrs by broth microdilution method; assay type: functional
Klebsiella pneumoniae [8] = experiment: Antibacterial activity against Klebsiella pneumoniae DS07955 after 24 hrs by broth microdilution method; assay type: functional
Klebsiella pneumoniae [9] = experiment: Antibacterial activity against Klebsiella pneumoniae DB55301 after 24 hrs by broth microdilution method; assay type: functional
Pseudomonas aeruginosa [10] = experiment: Antibacterial activity against Pseudomonas aeruginosa DU14476 after 24 hrs by broth microdilution method; assay type: functional
Pseudomonas aeruginosa [11] = experiment: Antibacterial activity against Pseudomonas aeruginosa DM23257 after 24 hrs by broth microdilution method; assay type: functional
Pseudomonas aeruginosa [12] = experiment: Antibacterial activity against Pseudomonas aeruginosa ATCC 27853 after 24 hrs by broth microdilution method; assay type: functional
Escherichia coli [13] = experiment: Antibacterial activity against Escherichia coli DS17232 after 24 hrs by broth microdilution method; assay type: functional
Pseudomonas aeruginosa [14] = experiment: Antibacterial activity against Pseudomonas aeruginosa DR5790 after 24 hrs by broth microdilution method; assay type: functional
Klebsiella pneumoniae [15] = experiment: Antibacterial activity against Klebsiella pneumoniae DS16260 after 24 hrs by broth microdilution method; assay type: functional
Pseudomonas aeruginosa [16] = experiment: Antibacterial activity against Pseudomonas aeruginosa DR4877 after 24 hrs by broth microdilution method; assay type: functional
Pseudomonas aeruginosa [17] = experiment: Antibacterial activity against Pseudomonas aeruginosa DR18531 after 24 hrs by broth microdilution method; assay type: functional
Pseudomonas aeruginosa [18] = experiment: Antibacterial activity against Pseudomonas aeruginosa DM4150R after 24 hrs by broth microdilution method; assay type: functional
Klebsiella pneumoniae [19] = experiment: Antibacterial activity against Klebsiella pneumoniae DU31158 after 24 hrs by broth microdilution method; assay type: functional
Escherichia coli [20] = experiment: Antibacterial activity against Escherichia coli DM17528 after 24 hrs by broth microdilution method; assay type: functional
Pseudomonas aeruginosa [21] = experiment: Induction of cytoplasmic membrane disruption in Pseudomonas aeruginosa DM23155 assessed as membrane integrity at 1 to 2 times MIC after 1 hr by fluorescence assay; assay type: functional
Lipopolysaccharide (LPS) [22] = experiment: Displacement of dansylcadaverine from Escherichia coli 0111:B4 LPS at 15 to 30 uM after 5 mins by high-throughput fluorescence displacement assay
Lipopolysaccharide (LPS) [23] = experiment: Induction of Escherichia coli 0111:B4 LPS neutralization using p-nitroaniline assessed as concentration required to neutralize 50% after 1 hr by limulus amebocyte lysate assay
[24] = Induction of calcein leakage from DOPE/DOPG artificial membrane at 1:32 ratio of compound to lipid by fluorescence assay; assay type: physicochemical
Pseudomonas aeruginosa [25] = experiment: Induction of 1-N-phenylnaphthylamine uptake in Pseudomonas aeruginosa DM23155 at 400 uM after 1 hr by fluorescence assay relative to polymyxin B; assay type: functional
[26] = Self-aggregation activity of the compound using 8-(Phenylamino)-1-naphthalenesulfonic acid as fluorescent probe at 300 uM by fluorescence assay; assay type: physicochemical
[27] = Induction of calcein leakage from DOPC artificial membrane at 1:32 ratio of compound to lipid by fluorescence assay; assay type: physicochemical

CCCCCCCC(=O)N[C@@H](CCCNC(=N)N)C(=O)NCC(=O)N[C@@H](CCCNC(=N)N)C(=O)N[C@@H](CCCCN)C(=O)NCC(=O)NCC(=O)N[C@@H](CCCNC(=N)N)C(=O)N[C@@H](CCCNC(=N)N)C(=O)N[C@@H](CCCCN)C(=O)N[C@@H](CCCCN)C(=O)O (Octanoyl-RGRKGGRRKK-OH)
Activity (Pseudomonas aeruginosa [1]): Active
HC10 [2]: > 10000 µg/mL
MIC (Escherichia coli [3]): 6 µM (≈ 7.95 µg/mL)
MIC (Pseudomonas aeruginosa [4]): 10 µM (≈ 13.2 µg/mL)
MIC (Klebsiella pneumoniae [5]): 40 µM (≈ 53 µg/mL)

GENTAMICIN
MIC (Pseudomonas aeruginosa [6]): 0.5 µM
MIC (Pseudomonas aeruginosa [7]): 0.25 µM
MIC (Klebsiella pneumoniae [8]): > 60 µM
MIC (Klebsiella pneumoniae [9]): 7.5 µM
MIC (Pseudomonas aeruginosa [10]): 25 µM
MIC (Pseudomonas aeruginosa [11]): 0.5 µM
MIC (Pseudomonas aeruginosa [12]): 0.5 µM
MIC (Escherichia coli [13]): 1 µM
MIC (Pseudomonas aeruginosa [14]): 25 µM
MIC (Klebsiella pneumoniae [15]): 2 µM
MIC (Pseudomonas aeruginosa [16]): > 60 µM
MIC (Pseudomonas aeruginosa [17]): 30 µM
MIC (Pseudomonas aeruginosa [18]): 0.5 µM
MIC (Klebsiella pneumoniae [19]): < 0.25 µM
MIC (Escherichia coli [20]): < 0.25 µM

CC(=O)N[C@@H](CCCNC(=N)N)C(=O)NCC(=O)N[C@@H](CCCNC(=N)N)C(=O)N[C@@H](CCCCN)C(=O)N[C@H](C(=O)N[C@H](C(=O)N[C@@H](CCCNC(=N)N)C(=O)N[C@@H](CCCNC(=N)N)C(=O)NCCCC[C@H](NC(=O)[C@H](CCCNC(=N)N)NC(=O)[C@H](CCCNC(=N)N)NC(=O)[C@@H](NC(=O)[C@@H](NC(=O)[C@H](CCCCN)NC(=O)[C@H](CCCNC(=N)N)NC(=O)CNC(=O)[C@H](CCCNC(=N)N)NC(C)=O)C(C)C)C(C)C)C(=O)N[C@@H](CCCCN)C(=O)O)C(C)C)C(C)C (I: Ac-RGRKVVRRKK-OH / II: Ac-RGRKVVRR; amide I:9-II:C)
HC10 [2]: > 10000 µg/mL
MIC (Escherichia coli [3]): 6 µM (≈ 14.2 µg/mL)
MIC (Pseudomonas aeruginosa [4]): 6 µM (≈ 14.2 µg/mL)
Activity (Pseudomonas aeruginosa [21]): >80%
Activity (Lipopolysaccharide (LPS) [22]): 75.7%
EC50 (Lipopolysaccharide (LPS) [23]): > 1 mM
Activity [24]: Active
MIC (Klebsiella pneumoniae [5]): 6 µM (≈ 14.2 µg/mL)

CC(=O)N[C@@H](CCCNC(=N)N)C(=O)NCC(=O)N[C@@H](CCCNC(=N)N)C(=O)N[C@@H](CCCCN)C(=O)NCC(=O)NCC(=O)N[C@@H](CCCNC(=N)N)C(=O)N[C@@H](CCCNC(=N)N)C(=O)NCCCC[C@H](NC(=O)[C@H](CCCNC(=N)N)NC(=O)[C@H](CCCNC(=N)N)NC(=O)CNC(=O)CNC(=O)[C@H](CCCCN)NC(=O)[C@H](CCCNC(=N)N)NC(=O)CNC(=O)[C@H](CCCNC(=N)N)NC(C)=O)C(=O)N[C@@H](CCCCN)C(=O)O (I: Ac-RGRKGGRRKK-OH / II: Ac-RGRKGGRR; amide I:9-II:C)
HC10 [2]: > 10000 µg/mL
Activity (Pseudomonas aeruginosa [25]): 1.6%
MIC (Escherichia coli [3]): 1.5 µM (≈ 3.31 µg/mL)
MIC (Pseudomonas aeruginosa [4]): 6 µM (≈ 13.2 µg/mL)
Activity (Lipopolysaccharide (LPS) [22]): 56.1%
EC50 (Lipopolysaccharide (LPS) [23]): > 1 mM
MIC (Klebsiella pneumoniae [5]): 3 µM (≈ 6.62 µg/mL)

CCCCCCCCCCCC(=O)N[C@@H](CCCNC(=N)N)C(=O)NCC(=O)N[C@@H](CCCNC(=N)N)C(=O)N[C@@H](CCCCN)C(=O)NCC(=O)NCC(=O)N[C@@H](CCCNC(=N)N)C(=O)N[C@@H](CCCNC(=N)N)C(=O)NCCCC[C@H](NC(=O)[C@H](CCCNC(=N)N)NC(=O)[C@H](CCCNC(=N)N)NC(=O)CNC(=O)CNC(=O)[C@H](CCCCN)NC(=O)[C@H](CCCNC(=N)N)NC(=O)CNC(=O)[C@H](CCCNC(=N)N)NC(=O)CCCCCCCCCCC)C(=O)N[C@@H](CCCCN)C(=O)O (I: Lauroyl-RGRKGGRRKK-OH / II: Lauroyl-RGRKGGRR; amide I:9-II:C)
Activity [26]: 62.5%
Activity [27]: Active
HC10 [2]: 517 µg/mL
Activity (Pseudomonas aeruginosa [25]): 55.9%
MIC (Escherichia coli [3]): 6 µM (≈ 14.9 µg/mL)
MIC (Pseudomonas aeruginosa [4]): 6 µM (≈ 14.9 µg/mL)
Activity (Lipopolysaccharide (LPS) [22]): 126%
EC50 (Lipopolysaccharide (LPS) [23]): 0.0628 mM
MIC (Klebsiella pneumoniae [5]): 6 µM (≈ 14.9 µg/mL)

CCCC(=O)N[C@@H](CCCNC(=N)N)C(=O)NCC(=O)N[C@@H](CCCNC(=N)N)C(=O)N[C@@H](CCCCN)C(=O)N[C@H](C(=O)N[C@H](C(=O)N[C@@H](CCCNC(=N)N)C(=O)N[C@@H](CCCNC(=N)N)C(=O)NCCCC[C@H](NC(=O)[C@H](CCCNC(=N)N)NC(=O)[C@H](CCCNC(=N)N)NC(=O)[C@@H](NC(=O)[C@@H](NC(=O)[C@H](CCCCN)NC(=O)[C@H](CCCNC(=N)N)NC(=O)CNC(=O)[C@H](CCCNC(=N)N)NC(=O)CCC)C(C)C)C(C)C)C(=O)N[C@@H](CCCCN)C(=O)O)C(C)C)C(C)C (I: Butyryl-RGRKVVRRKK-OH / II: Butyryl-RGRKVVRR; amide I:9-II:C)
HC10 [2]: > 10000 µg/mL
MIC (Escherichia coli [3]): 3 µM (≈ 7.29 µg/mL)
MIC (Pseudomonas aeruginosa [4]): 10 µM (≈ 24.3 µg/mL)
Activity (Pseudomonas aeruginosa [21]): >80%
Activity (Lipopolysaccharide (LPS) [22]): 93.4%
EC50 (Lipopolysaccharide (LPS) [23]): > 1 mM
Activity [24]: Active
MIC (Klebsiella pneumoniae [5]): 6 µM (≈ 14.6 µg/mL)
